Patent US20130273649A1, “Culture medium for pluripotent stem cells” (UNIVERSITY OF SOUTHERN CALIFORNIA, priority 2012, published 2013)

Tests used:
Type in all cases: cell-based
[1] = system: mouse EpiSCs; experiment: Mouse EpiSC self-renewal culture; conditions: for EpiSC self-renewal / maintenance of undifferentiated state: CD1 mouse EpiSCs, GMEM/10% FBS, no FGF2/activin unless named, CHIR 3 μM, PD0325901 1 μM, XAV939 2 μM, IWR-1 2.5 μM, IWP-2 2.5 μM, Pyrvinium 100 nM
Description: We therefore reasoned that if CHIR induces EpiSC differentiation through stabilization of β-catenin, de-stabilization of β-catenin might promote EpiSC self-renewal. We tested this hypothesis by administering the tankyrase inhibitor XAV939 to mouse EpiSC cultures. XAV939-mediated inhibition of tankyrase stabilizes Axin, leading to the formation of the β-catenin destruction complex, composed of GSK3, Axin and adenomatous polyposis coli (APC) (Huang et al., 2009). […] EpiSCs cultured in CHIR/XAV could be routinely passaged by single-cell dissociation and replating onto gelatin-coated dishes, and could be cryo-preserved and recovered at high efficiency by standard techniques.
final concentrations: CHIR99021 (3 μM), PD0325901 (1 μM), XAV939 (Sigma, 2 μM), IWR-1 (Sigma, 2.5 μM), IWP-2 (Stemgent, 2.5 μM), Pyrvinium (Sigma, 100 nM), recombinant human FGF2 (PeproTech, 10 ng/ml), and recombinant human activin A (PeproTech, 10 ng/ml). CHIR99021 and PD0325901 were synthesized in the Division of Signal Transduction Therapy, University of Dundee, UK.
The basal medium for mouse EpiSC culture is the conventional mouse ESC medium, which consists of GMEM (Sigma) supplemented with 10% fetal bovine serum (FBS) (Hyclone), 2 mM L-glutamine (Invitrogen), 1 mM sodium pyruvate (Invitrogen), 1% nonessential amino acids (Invitrogen), and 0.1 mM (3-mercaptoethanol. Mouse EpiSCs were derived and maintained in the basal medium supplemented with FGF2/activin, CHIR/XAV, or CHIR/IWR-1. The basal medium for rat EpiSC culture is N2B27 (Tong et al., 2011), which was prepared by mixing 500 ml of DMEM/F12 (Invitrogen) with 500 ml of Neurobasal™ medium (Invitrogen), and adding 5 ml of N2 (Invitrogen), 10 ml of B27 (Invitrogen), 5 ml of Glutamax™ (Invitrogen), and 1 ml of 0.1 M β-mercaptoethanol (Sigma). The basal medium for human ESC culture consists of Knockout™ DMEM/F12 supplemented with 20% KSR (Invitrogen), 1% nonessential amino acids, 2 mM L-glutamine, and 0.1 mM (3-mercaptoethanol. Human ESCs were cultured in the basal medium supplemented with FGF2, CHIR/XAV, or CHIR/IWR-1.
Post-implantation epiblasts were isolated from mouse or rat embryos and dissociated into small clumps as previously described (Chenoweth and Tesar, 2010). Epiblast fragments were placed into 4-well plates pre-coated with 0.1% gelatin (for mouse epiblasts) or pre-seeded with γ-irradiated mouse embryonic fibroblasts (MEFs) (for rat epiblasts) and cultured in either the FGF2/activin or the CHIR/XAV conditions. Emerging EpiSCs were trypsinized and expanded every 2-3 days at a subculture ratio of 1:4. Animal experiments were performed according to the investigator's protocols approved by the University of Southern California Institutional Animal Care and Use Committee.

[2] = system: β-catenin/TCF-responsive TOPFlash reporter; experiment: TOPFlash reporter assay in H9 human ESCs; conditions: 24 h
Method: (A) TOPFlash™ assay in H9 human ESCs subjected to the indicated treatments for 24 h. Data represent mean±s.d. of three biological replicates. (B) Representative phase contrast and alkaline phosphatase (AP) staining images of H9 human ESCs cultured in the indicated conditions for 3 passages. (C) Phase contrast images of H9 human ESCs cultured in CHIR/XAV or CHIR/IWR-1 for 11 passages. (D) Colony forming efficiency assay of H9 human ESCs cultured in FGF2 or CHIR/IWR-1 conditions. Data represent mean±s.d. of three biological replicates. Right panel: a representative image showing AP staining of colonies formed from H9 human ESCs cultured in either FGF2 or CHIR/IWR-1 condition. (E) Human ESCs cultured in CHIR/IWR-1 for 11 passages were immunostained with the indicated antibodies. (F) Embryoid bodies (EBs) were generated from H9 human ESCs cultured in CHIR/IWR-1 for 11 passages. The outgrowths of EBs were immunostained with the indicated antibodies. (G) H&E staining of teratomas generated from H9 ESCs cultured in CHIR/IWR-1 for 20 passages. (H) Western blot analysis of Axin1 and Axin2 expression in HES3 human ESCs treated with the indicated cytokines/inhibitors for 24 h. (I) Immunofluorescence images of H9 human ESCs (passage 5 in CHIR) overexpressing Flag-tagged Axin2. (J) Representative phase contrast and immunofluorescence images of HES2 human ESCs overexpressing ΔNβ-catenin-ERT2 at passage 5 in basal medium only. These cells were cultured in basal medium only for more than 10 passages and remained morphologically undifferentiated. (K) Phase contrast images of HES2 human ESCs overexpressing ΔNβ-catenin (left panel, passage 2 in basal medium/FGF2) or ΔNβ-catenin/A295W/I296W mutant (right panel, passage 5 in basal medium only). Scale bars, 50 μm (B, C, E-G, and I-K). (L) Model of mouse EpiSC and human ESC self-renewal mediated by β-catenin. In the absence of Wnt or GSK3 inhibitor, a β-catenin destruction complex, containing Axin1, GSK3, and APC is formed, leading to the degradation of β-catenin and differentiation (left). In the presence of Wnt or GSK3 inhibitor, β-catenin is stabilized and can initiate cellular responses related to both self-renewal and differentiation. Stabilized β-catenin induces differentiation when it translocates into the nucleus and binds TCFs to activate downstream targets (middle). Addition of XAV or IWR-1 stabilizes Axin2. […]
For quantifying relative Oct3/4 enhancer activities, pGL3-Oct4 DE and pGL3-Oct4 PE plasmids (gifts from Hans Schöler's lab) were co-transfected with the Renilla vector, using the Amaxa™ Transfection Kit (Lonza). […] For quantifying relative β-catenin/Tcf transcriptional activity, pGL2-SuperTOP™ plasmid (gift from Randall Moon) was co-transfected with the Renilla vector and assayed accordingly.

[3] = system: Axin2; experiment: Western blot of Axin2 in mouse EpiSCs; conditions: CD1 mouse EpiSCs treated 12 h

Row | Structure (SMILES) | self-renewal of β-catenin−/− EpiSCs overexpressing Axin2 ([1]; 3 μM CHIR after removal of FGF2/activin) | self-renewal of Axin1-overexpressing EpiSCs ([1]; Axin1-EpiSCs, CHIR after removal of FGF2/activin) | self-renewal of Axin2-overexpressing EpiSCs ([1]; Axin2-EpiSCs, CHIR alone after removal of FGF2/activin) | EpiSC self-renewal / maintenance of undifferentiated state [1] | TOPFlash reporter activity [2] | amount of Axin2 protein [3] | time EpiSCs remained undifferentiated ([1]; XAV939 alone, before passaging) | effect on TOPFlash activity induced by CHIR ([2]; added to CHIR)
1 | Cc1c[nH]c(-c2cnc(NCCNc3ccc(C#N)cn3)nc2-c2ccc(Cl)cc2Cl)n1 [CHIR99021, 6-((2-((4-(2,4-Dichlorophenyl)-5-(4-methyl-1H-imidazol-2-yl)pyrimidin-2-yl)amino)ethyl)amino)nicotinonitrile] | differentiated after the removal of FGF2/activin, even in the presence of CHIR | rapidly differentiated | sufficient to support robust and long-term expansion of undifferentiated Axin2-EpiSCs | rapidly differentiated or died | strongly induced | elevated | – | –
2 | Oc1nc(-c2ccc(C(F)(F)F)cc2)nc2c1CSCC2 [XAV939, 3,5,7,8-Tetrahydro-2-[4-(trifluoromethyl)phenyl]-4H-thiopyrano[4,3-d]pyrimidin-4-one] | – | – | – | differentiated after passaging | – | significantly increased | approximately 1 week | abolished this TOPFlash™ activity
